Measurements: paper PMC7580834, “Inhibition mechanism of naphthylphenylamine derivatives acting on the CDC25B dual phosphatase and analysis of the molecular processes involved in the high cytotoxicity exerted by one selected derivative in melanoma cells” (Journal of Enzyme Inhibition and Medicinal Chemistry, 2020)

Assays:
OMFP-bound CDC25B-C473S [1] = biological target: T1, OMFP-bound CDC25B-C473S (Homo sapiens, UniProt P30305, C487S); experiment: Intrinsic fluorescence quenching of CDC25B-C473S in the presence of 5 µM OMFP (Stern-Volmer); type: binding; conditions: reciprocal of KSV; presence of 5 µM OMFP; read-out: K′D of the complex, OMFP-bound CDC25B-C473S•inhibitor
T1 sequence (P30305 370-580 C487S): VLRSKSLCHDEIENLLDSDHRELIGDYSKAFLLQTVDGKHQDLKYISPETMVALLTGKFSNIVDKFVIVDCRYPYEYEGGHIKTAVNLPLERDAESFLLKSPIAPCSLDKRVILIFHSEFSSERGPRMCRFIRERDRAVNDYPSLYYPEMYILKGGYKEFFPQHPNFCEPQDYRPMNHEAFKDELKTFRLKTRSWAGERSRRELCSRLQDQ
From the text: (§1) The mutant form of CDC25B, carrying the C473S replacement (CDC25B-C473S), was obtained through site-directed mutagenesis of the CDC25B catalytic segment cloned in pET28a-CDC25B-cd. To this aim, the QuikChange site-directed mutagenesis kit (Stratagene, La Jolla, CA, USA) and the forward and reverse primers for C473S replacement (5′d-[…]-3′ and 5′d-[…]-3′) were used. Positive clones were obtained, and the nucleotide sequencing of the mutagenised segment excluded the presence of undesired mutations. The new vector was called pET28a-CDC25B-C473S-cd. The expression of the new vector and the purification of the recombinant form of CDC25B-C473S catalytic domain were carried out as previously reported for wild-type CDC25B catalytic domain[18], and similar yields were obtained. As expected, the mutant enzyme was unable to hydrolyse the synthetic substrate OMFP, when its activity was checked with the fluorimetric assay method previously described.
(§2) Fluorescence spectra were recorded at 20 °C using a computer-assisted Cary Eclipse spectrofluorimeter (Varian, Palo Alto, CA, USA) equipped with an electronic temperature controller. The excitation wavelength was set at 280 nm and the excitation and emission slits were set at 10 and 20 nm, respectively. A 500 µL final volume of a 0.2 µM solution of CDC25B or CDC25B-C473S dissolved in 20 mM Tris•HCl, pH 7.8, 0.5 mM TCEP was directly prepared in the fluorimetric cuvette in the absence or in the presence of OMFP and/or some NPA derivatives. Serial pre-dilutions of the NPA derivatives or OMFP at increasing concentration were prepared in DMSO or methanol, respectively. Alongside, a convenient amount of the enzyme pre-dilution was prepared just before its usage for the experiment and stored on ice. When the combined effect of NPA derivative and OMFP was investigated, two enzyme pre-dilutions were prepared in the absence or in the presence of 5 µM OMFP. In order to evaluate the specific effect produced by any addition of solvent/ligand on the intrinsic fluorescence of the enzyme, 495 µL of the enzyme pre-dilution were placed in the fluorimetric cuvette and the relative spectrum was recorded; after the addition of 5 µL of each pre-dilution of solvent/ligand and fast mixing, the spectrum was recorded again. This procedure, repeated for each experimental point, allowed a normalisation of the specific effects produced by solvent/ligands. Furthermore, a correction was also applied for the little inner-filter effect due to the absorbance at 280 nm of the NPA derivative used at different concentrations; on the other hand, no correction was necessary for OMFP. All spectra, recorded at a scan speed of 120 nm/min, were normalised and corrected.

OMFP-bound CDC25B-C473S [2] = experiment: as above; type: binding
From the text: as §1, §2

Kd (OMFP-bound CDC25B-C473S [1]): 32 µM
KSV (Stern-Volmer constant) (OMFP-bound CDC25B-C473S [2]; 0.2 µM CDC25B-C473S, in the presence of 5 µM OMFP): 0.031 µM⁻¹
K′D/Ki ratio (OMFP-bound CDC25B-C473S [2]; K′D of OMFP-bound CDC25B-C473S•inhibitor over Ki): 3.8
SMILES: CCOC(=O)c1cccc(Nc2cc(OC)cc3ccccc23)c1 [4a]
